# Experimental data from US8927717B1, “Thiochromeno[2,3-c]quinolin-12-one derivatives, preparation method and application thereof” (National Defense Medical Center, priority 2014, dated 2015).
# How the values were obtained:
# Type in all cases: cell-based
# SR = test system: SR
# K-562 = test system: K-562
# HOP-62 = test system: HOP-62
# UO-31 = test system: UO-31
# NCI-H23 = test system: NCI-H23
# SK-MEL-5 = test system: SK-MEL-5
# KM12 = experiment: cells
# TK-10 = test system: TK-10
# HCT-15 = test system: HCT-15
# SN12C = test system: SN12C
# A549/ATCC = test system: A549/ATCC
# UACC-62 = test system: UACC-62
# ACHN = test system: ACHN
# MDA-MB-231/ATCC = test system: MDA-MB-231/ATCC
# HT29 = test system: HT29
# SNB-75 = test system: SNB-75
# NCI-H522 = test system: NCI-H522
# MOLT-4 = test system: MOLT-4
# T-47D = test system: T-47D
# COLO 205 = test system: COLO 205
# LOX IMVI = settings: LOX IMVI, five dose
# BT-549 = test system: BT-549
# SW-620 = test system: SW-620
# HL-60(TB) = settings: Leukemia; 10^−5 molar; 48 hours; SRB
# M14 = test system: M14
# SNB-19 = test system: SNB-19
# 60 cancer cell lines = experiment: NCI 60-cell screen, SRB, whole panel (mean, delta, range)
# PC-3 = test system: PC-3
# SK-OV-3 = test system: SK-OV-3
# DU-145 = test system: DU-145
# OVCAR-5 = test system: OVCAR-5
# RXF 393 = settings: Renal cancer; 10^−5 molar; 48 hours; SRB
# MCF7 = test system: MCF7
# NCI-H460 = test system: NCI-H460
# NCI/ADR-RES = test system: NCI/ADR-RES
# HCT-116 = test system: HCT-116
# OVCAR-8 = test system: OVCAR-8
# CCRF-CEM = test system: CCRF-CEM
# MDA-MB-435 = test system: MDA-MB-435
# [1] = Leukemia, 10^−5 molar, 48 hours, SRB
# [2] = Non-small cell lung cancer, 10^−5 molar, 48 hours, SRB
# [3] = Renal cancer, 10^−5 molar, 48 hours, SRB
# [4] = Homo sapiens, NCI-H23, five dose
# [5] = Homo sapiens, SK-MEL-5, five dose
# [6] = Melanoma, 10^−5 molar, 48 hours, SRB
# [7] = Colon cancer, 10^−5 molar, 48 hours, SRB
# [8] = Homo sapiens, HCT-15, five dose
# [9] = Homo sapiens, A549/ATCC, five dose
# [10] = Breast cancer, 10^−5 molar, 48 hours, SRB
# [11] = Homo sapiens, HT-29, HT29, five dose
# [12] = CNS cancer, 10^−5 molar, 48 hours, SRB
# [13] = Homo sapiens, SNB-75, five dose
# [14] = Homo sapiens, NCI-H522, five dose
# [15] = Homo sapiens, SW-620, five dose
# [16] = Prostate cancer, 10^−5 molar, 48 hours, SRB
# [17] = Ovarian cancer, 10^−5 molar, 48 hours, SRB
# [18] = Homo sapiens, NCI-H460, five dose
# [19] = Homo sapiens, HCT-116, five dose
compound,measurement,setting,value
"NCCNc1nc2ccccc2c2c(=O)c3cc(Cl)ccc3sc12 [Compound N14, 6-((2-Aminoethyl)amino)-10-chloro-12H-thiochromeno[2,3-c]quinolin-12-one]",GI50,"SR; Homo sapiens, SR, five dose",1810 nM
same,LC50 (50% lethal concentration),"SR; Homo sapiens, SR, five dose",> 100 µM
same,Growth percent SR,SR; [1],−51.67%
same,TGI,"SR; SR, five dose",4.30 µM
same,GI50,"K-562; Homo sapiens, K562, K-562, five dose",1690 nM
same,CC50,"K-562; Homo sapiens, K562, K-562, five dose, read-out: LC50 (the source's name)",7.84 µM
same,TGI,"K-562; K-562, five dose",3.65 µM
same,Growth percent K-562,K-562; [1],−57.17%
same,TGI,"HOP-62; HOP-62, five dose",2.92 µM
same,GI50,"HOP-62; Homo sapiens, HOP-62, five dose",1470 nM
same,Growth percent HOP-62,HOP-62; [2],−97.40%
same,GI50,"UO-31; Homo sapiens, UO-31, five dose",1290 nM
same,CC50,"UO-31; Homo sapiens, UO-31, five dose, read-out: LC50 (the source's name)",5.96 µM
same,Growth percent UO-31,UO-31; [3],−92.77%
same,TGI,"UO-31; UO-31, five dose",2.78 µM
same,GI50,NCI-H23; [4],1720 nM
same,LC50 (lethal concentration 50%),NCI-H23; [4],6.63 µM
same,TGI,"NCI-H23; NCI-H23, five dose",3.37 µM
same,Growth percent NCI-H23,NCI-H23; [2],−5.25%
same,GI50,SK-MEL-5; [5],1510 nM
same,LC50,SK-MEL-5; [5],5.44 µM
same,Growth percent SK-MEL-5,SK-MEL-5; [6],68.64%
same,TGI,"SK-MEL-5; SK-MEL-5, five dose",2.87 µM
same,Growth percent KM12,KM12; [7],−85.99%
same,GI50,"KM12; Homo sapiens, KM12, five dose",1670 nM
same,LC50,"KM12; Homo sapiens, KM12, five dose",5.79 µM
same,TGI,"KM12; KM12, five dose",3.11 µM
same,GI50,"TK-10; Homo sapiens, TK-10, five dose",2060 nM
same,CC50,"TK-10; Homo sapiens, TK-10, five dose, read-out: LC50 (the source's name)",6.21 µM
same,Growth percent TK-10,TK-10; [3],−28.04%
same,TGI,"TK-10; TK-10, five dose",3.58 µM
same,Growth percent HCT-15,HCT-15; [7],−45.92%
same,TGI,"HCT-15; HCT-15, five dose",3.12 µM
same,GI50,HCT-15; [8],1580 nM
same,LC50,HCT-15; [8],6.16 µM
same,GI50,"SN12C; Homo sapiens, SN12C, five dose",1450 nM
same,Growth percent SN12C,SN12C; [3],−93.98%
same,TGI,"SN12C; SN12C, five dose",3.02 µM
same,TGI,"A549/ATCC; A549/ATCC, five dose",3.50 µM
same,GI50,A549/ATCC; [9],1830 nM
same,LC50,A549/ATCC; [9],6.68 µM
same,Growth percent A549/ATCC,A549/ATCC; [2],−88.76%
same,GI50,"UACC-62; Homo sapiens, UACC-62, five dose",1670 nM
same,CC50,"UACC-62; Homo sapiens, UACC-62, five dose, read-out: LC50 (the source's name)",6.52 µM
same,Growth percent UACC-62,UACC-62; [6],−96.67%
same,TGI,"UACC-62; UACC-62, five dose",3.30 µM
same,TGI,"ACHN; ACHN, five dose",2.76 µM
same,GI50,"ACHN; Homo sapiens, ACHN, five dose",1440 nM
same,CC50,"ACHN; Homo sapiens, ACHN, five dose, read-out: LC50 (the source's name)",5.29 µM
same,Growth percent ACHN,ACHN; [3],−92.31%
same,Growth percent MDA-MB-231/ATCC,MDA-MB-231/ATCC; [10],−84.52%
same,GI50,"MDA-MB-231/ATCC; Homo sapiens, MDA-MB-231/ATCC, five dose",1310 nM
same,CC50,"MDA-MB-231/ATCC; Homo sapiens, MDA-MB-231/ATCC, five dose, read-out: LC50 (the source's name)",5.35 µM
same,TGI,"MDA-MB-231/ATCC; MDA-MB-231/ATCC, five dose",2.65 µM
same,Growth percent HT29,HT29; [7],−83.30%
same,TGI,"HT29; HT29, five dose",3.29 µM
same,GI50,HT29; [11],1780 nM
same,LC50 (concentration killing 50% of cells),HT29; [11],6.09 µM
same,Growth percent SNB-75,SNB-75; [12],−43.13%
same,GI50,SNB-75; [13],1090 nM
same,LC50,SNB-75; [13],4.9 µM
same,TGI,"SNB-75; SNB-75, five dose",2.31 µM
same,GI50,NCI-H522; [14],1860 nM
same,LC50 (concentration causing 50% net cell kill),NCI-H522; [14],6.92 µM
same,TGI,"NCI-H522; NCI-H522, five dose",3.59 µM
same,Growth percent NCI-H522,NCI-H522; [2],−66.59%
same,GI50,"MOLT-4; Homo sapiens, MOLT-4, five dose",2020 nM
same,CC50,"MOLT-4; Homo sapiens, MOLT-4, five dose, read-out: LC50 (the source's name)",7.77 µM
same,Growth percent MOLT-4,MOLT-4; [1],−58.82%
same,TGI,"MOLT-4; MOLT-4, five dose",3.96 µM
same,Growth percent T-47D,T-47D; [10],−82.45%
same,GI50,"T-47D; Homo sapiens, T47D, T-47D, five dose",1560 nM
same,TGI,"T-47D; T-47D, five dose",3.37 µM
same,TGI,"COLO 205; COLO 205, five dose",3.57 µM
same,Growth percent COLO 205,COLO 205; [7],−87.22%
same,GI50,"COLO 205; Homo sapiens, COLO 205, five dose",1730 nM
same,GI50,LOX IMVI; Homo sapiens,1680 nM
same,LC50,LOX IMVI; Homo sapiens,5.96 µM
same,TGI,LOX IMVI,3.16 µM
same,TGI,"BT-549; BT-549, five dose",5.35 µM
same,Growth percent BT-549,BT-549; [10],78.49%
same,GI50,"BT-549; Homo sapiens, BT-549, five dose",2150 nM
same,CC50,"BT-549; Homo sapiens, BT-549, five dose, read-out: LC50 (the source's name)",62 µM
same,Growth percent SW-620,SW-620; [7],−66.88%
same,GI50,SW-620; [15],1670 nM
same,LC50,SW-620; [15],7.02 µM
same,TGI,"SW-620; SW-620, five dose",3.42 µM
same,Growth percent HL-60(TB),HL-60(TB),−47.50%
same,GI50,"M14; Homo sapiens, M14, five dose",1830 nM
same,LC50,"M14; Homo sapiens, M14, five dose",6.14 µM
same,TGI,"M14; M14, five dose",3.35 µM
same,Growth percent M14,M14; [6],−55.62%
same,Growth percent SNB-19,SNB-19; [12],40.06%
same,GI50,"SNB-19; Homo sapiens, SNB-19, five dose",1650 nM
same,TGI,"SNB-19; SNB-19, five dose",3.18 µM
same,GI50,"60 cancer cell lines; 60 cell, mean over panel, five dose",1660 nM
same,CC50,"60 cancer cell lines; 60 cell, mean over panel, five dose, read-out: LC50, Mean",7.94 µM
same,"Growth percent, Delta","60 cancer cell lines; delta over the cell panel, 10^−5 molar, 48 hours, SRB",46.49%
same,"TGI, Mean","60 cancer cell lines; mean over panel, five dose",3.39 µM
same,"Growth percent, Mean","60 cancer cell lines; mean over the cell panel, 10^−5 molar, 48 hours, SRB",−51.89%
same,"Growth percent, Range","60 cancer cell lines; range over the cell panel, 10^−5 molar, 48 hours, SRB",176.87%
same,GI50,"PC-3; Homo sapiens, PC-3, five dose",1550 nM
same,CC50,"PC-3; Homo sapiens, PC-3, five dose, read-out: LC50 (the source's name)",5.76 µM
same,TGI,"PC-3; PC-3, five dose",2.99 µM
same,Growth percent PC-3,PC-3; [16],−97.71%
same,GI50,"SK-OV-3; Homo sapiens, SK-OV-3, five dose",1780 nM
same,CC50,"SK-OV-3; Homo sapiens, SK-OV-3, five dose, read-out: LC50 (the source's name)",6.42 µM
same,Growth percent SK-OV-3,SK-OV-3; [17],12.25%
same,TGI,"SK-OV-3; SK-OV-3, five dose",3.38 µM
same,TGI,"DU-145; DU-145, five dose",3.20 µM
same,GI50,"DU-145; Homo sapiens, DU-145, five dose",1810 nM
same,CC50,"DU-145; Homo sapiens, DU-145, five dose, read-out: LC50 (the source's name)",5.66 µM
same,Growth percent DU-145,DU-145; [16],−96.35%
same,GI50,"OVCAR-5; Homo sapiens, OVCAR-5, five dose",1460 nM
same,CC50,"OVCAR-5; Homo sapiens, OVCAR-5, five dose, read-out: LC50 (the source's name)",5.66 µM
same,TGI,"OVCAR-5; OVCAR-5, five dose",2.88 µM
same,Growth percent OVCAR-5,OVCAR-5; [17],−52.16%
same,Growth percent RXF 393,RXF 393,−87.22%
same,Growth percent MCF7 (Table 2: MCF),MCF7; [10],−98.38%
same,GI50,"MCF7; Homo sapiens, MCF7, five dose",1280 nM
same,TGI,"MCF7; MCF7, five dose",2.81 µM
same,GI50,NCI-H460; [18],1690 nM
same,LC50,NCI-H460; [18],7.05 µM
same,TGI,"NCI-H460; NCI-H460, five dose",3.45 µM
same,Growth percent NCI-H460,NCI-H460; [2],−62.39%
same,GI50,"NCI/ADR-RES; Homo sapiens, NCI/ADR-RES, five dose",1880 nM
same,TGI,"NCI/ADR-RES; NCI/ADR-RES, five dose",3.67 µM
same,Growth percent NCI/ADR-RES,NCI/ADR-RES; [17],−42.68%
same,Growth percent HCT-116,HCT-116; [7],−48.19%
same,TGI,"HCT-116; HCT-116, five dose",2.99 µM
same,GI50,HCT-116; [19],1630 nM
same,LC50 (concentration killing 50% of cells),HCT-116; [19],5.47 µM
same,GI50,"OVCAR-8; Homo sapiens, OVCAR-8, five dose",1890 nM
same,TGI,"OVCAR-8; OVCAR-8, five dose",4.12 µM
same,Growth percent OVCAR-8,OVCAR-8; [17],−74.59%
same,TGI,"CCRF-CEM; CCRF-CEM, five dose",3.65 µM
same,GI50,"CCRF-CEM; Homo sapiens, CCRF-CEM, five dose",1750 nM
same,CC50,"CCRF-CEM; Homo sapiens, CCRF-CEM, five dose, read-out: LC50 (the source's name)",7.64 µM
same,Growth percent CCRF-CEM,CCRF-CEM; [1],−39.61%
same,GI50,"MDA-MB-435; Homo sapiens, MDA-MB-435, five dose",1820 nM
same,TGI,"MDA-MB-435; MDA-MB-435, five dose",3.59 µM
same,Growth percent MDA-MB-435,MDA-MB-435; [6],−85.39%
